Source: patent US6914045B2, “Glycopeptide antibiotics” (Wyeth Holdings Corporation, priority 2001, dated 2005)
Converted amounts (≈) assume the structure as drawn.

Legend:
Test in all cases: in vitro antibacterial evaluation, MIC by broth dilution
Format in all cases: cell-based
Enterococcus sp. = settings: broth dilution, 18 hours at 35° C.
How it was run: (§1)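 Following National Committee for Clinical Laboratory Standards recommendations (M7-A2), susceptibility was measured by dilution in Muller-Hinton II […]. Bacteria were seeded at 5×10^5 CFU/mL against compound concentrations from 64 down to 0.06 μg/mL.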

Staphylococcus sp. = settings: broth dilution, 18 hours at 35° C.
How it was run: as §1

Streptococcus sp. = settings: broth dilution, 18 hours at 35° C.
How it was run: as §1

Escherichia coli = settings: 18 hours at 35° C.

MIC Enterococcus avium (GC 4558) (Enterococcus sp.): 4 µg/mL (≈ 2.73 µM)
MIC Enterococcus faecalis (ATCC 29212) (Enterococcus sp.): 16 µg/mL (≈ 10.9 µM)
MIC Enterococcus faecalis (GC 2242) (Enterococcus sp.): 16 µg/mL (≈ 10.9 µM)
MIC Enterococcus faecalis (GC 2691) (Enterococcus sp.): 8 µg/mL (≈ 5.46 µM)
MIC Enterococcus faecalis (GC 3059) (Enterococcus sp.): 8 µg/mL (≈ 5.46 µM)
MIC Enterococcus faecalis (GC 4552) (Enterococcus sp.): 16 µg/mL (≈ 10.9 µM)
MIC Enterococcus faecalis (GC 4553) (Enterococcus sp.): 16 µg/mL (≈ 10.9 µM)
MIC Enterococcus faecalis (GC 4554) (Enterococcus sp.): 16 µg/mL (≈ 10.9 µM)
MIC Enterococcus faecalis (GC 6189) (Enterococcus sp.): 8 µg/mL (≈ 5.46 µM)
MIC Enterococcus faecium (GC 2243) (Enterococcus sp.): 16 µg/mL (≈ 10.9 µM)
MIC Enterococcus faecium (GC 4556) (Enterococcus sp.): 16 µg/mL (≈ 10.9 µM)
MIC Enterococcus faecium (GC 4557) (Enterococcus sp.): 2 µg/mL (≈ 1.36 µM)
MIC Enterococcus faecalis (ATCC 29212) (Enterococcus sp.; strain ATCC 29212): 16 µg/mL (≈ 10.9 µM)
MIC Enterococcus faecium (GC 2243) (Enterococcus sp.; strain GC 2243): 16 µg/mL (≈ 10.9 µM)
MIC Enterococcus faecalis (GC 4552) (Enterococcus sp.; strain GC 4552): 16 µg/mL (≈ 10.9 µM)
MIC Enterococcus faecalis (GC 4553) (Enterococcus sp.; strain GC 4553): 16 µg/mL (≈ 10.9 µM)
MIC Enterococcus faecalis (GC 4554) (Enterococcus sp.; strain GC 4554): 16 µg/mL (≈ 10.9 µM)
MIC Enterococcus faecium (GC 4556) (Enterococcus sp.; strain GC 4556): 16 µg/mL (≈ 10.9 µM)
MIC Enterococcus faecium (GC 4557) (Enterococcus sp.; strain GC 4557): 2 µg/mL (≈ 1.36 µM)
MIC Enterococcus avium (GC 4558) (Enterococcus sp.; strain GC 4558): 4 µg/mL (≈ 2.73 µM)
MIC Enterococcus faecalis (GC 6189) (Enterococcus sp.; strain GC 6189): 8 µg/mL (≈ 5.46 µM)
MIC Enterococcus faecalis (GC 2242) (Enterococcus sp.; inoculum 5×10^5 CFU/mL, strain GC 2242): 16 µg/mL (≈ 10.9 µM)
MIC Enterococcus faecalis (GC 2691) (Enterococcus sp.; inoculum 5×10^5 CFU/mL, strain GC 2691): 8 µg/mL (≈ 5.46 µM)
MIC Enterococcus faecalis (GC 3059) (Enterococcus sp.; inoculum 5×10^5 CFU/mL, strain GC 3059): 8 µg/mL (≈ 5.46 µM)
MIC Coagulase Negative Staphylococcus (GC 4547) (Staphylococcus sp.): 4 µg/mL (≈ 2.73 µM)
MIC Coagulase Negative Staphylococcus (GC 4548) (Staphylococcus sp.): 2 µg/mL (≈ 1.36 µM)
MIC Coagulase Negative Staphylococcus (GC 4549) (Staphylococcus sp.): 2 µg/mL (≈ 1.36 µM)
MIC Coagulase Negative Staphylococcus (GC 4551) (Staphylococcus sp.): 2 µg/mL (≈ 1.36 µM)
MIC Coagulase Negative Staphylococcus (GC 6257) (Staphylococcus sp.): 2 µg/mL (≈ 1.36 µM)
MIC Staphylococcus aureus (ATCC 29213) (Staphylococcus sp.): 4 µg/mL (≈ 2.73 µM)
MIC Staphylococcus aureus (GC 1131) (Staphylococcus sp.): 4 µg/mL (≈ 2.73 µM)
MIC Staphylococcus aureus (GC 3051) (Staphylococcus sp.): 0.5 µg/mL (≈ 0.341 µM)
MIC Staphylococcus aureus (GC 3053) (Staphylococcus sp.): 4 µg/mL (≈ 2.73 µM)
MIC Staphylococcus aureus (GC 4541) (Staphylococcus sp.): 1 µg/mL (≈ 0.682 µM)
MIC Staphylococcus aureus (GC 4542) (Staphylococcus sp.): 2 µg/mL (≈ 1.36 µM)
MIC Staphylococcus aureus (GC 4544) (Staphylococcus sp.): 4 µg/mL (≈ 2.73 µM)
MIC Staphylococcus aureus (GC 4545) (Staphylococcus sp.): 4 µg/mL (≈ 2.73 µM)
MIC Staphylococcus aureus-SMITH (GC 4543) (Staphylococcus sp.): 2 µg/mL (≈ 1.36 µM)
MIC Staphylococcus aureus (ATCC 29213) (Staphylococcus sp.; strain ATCC 29213): 4 µg/mL (≈ 2.73 µM)
MIC Staphylococcus aureus (GC 1131) (Staphylococcus sp.; strain GC 1131): 4 µg/mL (≈ 2.73 µM)
MIC Staphylococcus aureus (GC 3051) (Staphylococcus sp.; strain GC 3051): 0.5 µg/mL (≈ 0.341 µM)
MIC Staphylococcus aureus (GC 3053) (Staphylococcus sp.; strain GC 3053): 4 µg/mL (≈ 2.73 µM)
MIC Staphylococcus aureus (GC 4541) (Staphylococcus sp.; strain GC 4541): 1 µg/mL (≈ 0.682 µM)
MIC Staphylococcus aureus (GC 4542) (Staphylococcus sp.; strain GC 4542): 2 µg/mL (≈ 1.36 µM)
MIC Staphylococcus aureus-SMITH (GC 4543) (Staphylococcus sp.; strain GC 4543): 2 µg/mL (≈ 1.36 µM)
MIC Staphylococcus aureus (GC 4544) (Staphylococcus sp.; strain GC 4544): 4 µg/mL (≈ 2.73 µM)
MIC Staphylococcus aureus (GC 4545) (Staphylococcus sp.; strain GC 4545): 4 µg/mL (≈ 2.73 µM)
MIC Coagulase Negative Staphylococcus (GC 4547) (Staphylococcus sp.; strain GC 4547): 4 µg/mL (≈ 2.73 µM)
MIC Coagulase Negative Staphylococcus (GC 4548) (Staphylococcus sp.; strain GC 4548): 2 µg/mL (≈ 1.36 µM)
MIC Coagulase Negative Staphylococcus (GC 4549) (Staphylococcus sp.; strain GC 4549): 2 µg/mL (≈ 1.36 µM)
MIC Coagulase Negative Staphylococcus (GC 4551) (Staphylococcus sp.; strain GC 4551): 2 µg/mL (≈ 1.36 µM)
MIC Coagulase Negative Staphylococcus (GC 6257) (Staphylococcus sp.; strain GC 6257): 2 µg/mL (≈ 1.36 µM)
MIC Streptococcus agalactiae (GC 4564) (Streptococcus sp.): 0.5 µg/mL (≈ 0.341 µM)
MIC Streptococcus pneumoniae (ATCC 6301) (Streptococcus sp.): <0.12 µg/mL
MIC Streptococcus pneumoniae (GC 1894) (Streptococcus sp.): <0.12 µg/mL
MIC Streptococcus pneumoniae (GC 4565) (Streptococcus sp.): 0.25 µg/mL (≈ 0.171 µM)
MIC Streptococcus pyogenes (GC 4563) (Streptococcus sp.): 0.5 µg/mL (≈ 0.341 µM)
MIC Streptococcus pneumoniae (ATCC 6301) (Streptococcus sp.; inoculum 5×10^5 CFU/mL, strain ATCC 6301): <0.12 µg/mL
MIC Streptococcus pneumoniae (GC 1894) (Streptococcus sp.; inoculum 5×10^5 CFU/mL, strain GC 1894): <0.12 µg/mL
MIC Streptococcus pyogenes (GC 4563) (Streptococcus sp.; inoculum 5×10^5 CFU/mL, strain GC 4563): 0.5 µg/mL (≈ 0.341 µM)
MIC Streptococcus agalactiae (GC 4564) (Streptococcus sp.; inoculum 5×10^5 CFU/mL, strain GC 4564): 0.5 µg/mL (≈ 0.341 µM)
MIC Streptococcus pneumoniae (GC 4565) (Streptococcus sp.; inoculum 5×10^5 CFU/mL, strain GC 4565): 0.25 µg/mL (≈ 0.171 µM)
MIC Escherichia coli (ATCC 25922) (Escherichia coli): 128 µg/mL (≈ 87.3 µM)
MIC Escherichia coli (GC 4559) (Escherichia coli): >128 µg/mL
MIC Escherichia coli (GC 4560) (Escherichia coli): 2 µg/mL (≈ 1.36 µM)
SMILES: COc1ccc(COCC2OC(OC3C(CO)OC(Oc4ccc(CC5NC(=O)C(C(C)c6ccccc6)NC(=O)CNC(=O)C(CO)NC(=O)C(C(O)C6CNC(=N)N6C6OC(CO)C(O)C(O)C6O)NC(=O)C(C(O)C6CNC(=N)N6)NC5=O)cc4)C(O)C3O)C(O)C(O)C2O)c2ccccc12 (stereo not shown) [Example 240]
MIC Staphylococcus haemolyticus (GC 4546) (Staphylococcus sp.): 2 µg/mL (≈ 1.36 µM)
MIC Staphylococcus haemolyticus (GC 4546) (Staphylococcus sp.; strain GC 4546): 2 µg/mL (≈ 1.36 µM)
